Experimental data as given in paper PMC9227096, “Design, Synthesis, and In Vitro, In Silico and In Cellulo Evaluation of New Pyrimidine and Pyridine Amide and Carbamate Derivatives as Multi-Functional Cholinesterase Inhibitors” (Pharmaceuticals, 2022).

What was measured:
tau protein = target: T1, tau protein (Homo sapiens, UniProt P10636); test: Inhibition of tau aggregation in intact E. coli cells, thioflavin-S staining; type: cell-based, Escherichia coli; conditions: [I] = 100 µM, E. coli cells overexpressing tau
T1 construct: expressed in transfected cells; host or cells: E. coli BL21 (DE3) with pTARA (T7 RNA polymerase under PBAD) and pRKT42
Method: For compounds 12, 14 and 18, the inhibitory activity against Aβ42 and tau aggregation was evaluated. The anti-aggregating effect of tested compounds was monitored by a cell-based assay in intact Escherichia coli cells that overexpress either Aβ42 peptide or tau protein, which, upon expression, form insoluble inclusion bodies that were stained with thioflavin-S [42]. The percentages of inhibition towards Aβ42 and tau aggregation were determined at an inhibitor concentration of 100 µM and the obtained results are reported in Table 6. In general, these compounds show a weak anti-aggregating activity; among these, the pyridine carbamate 18 is the best inhibitor of aggregation of both Aβ42 and tau.
E. coli BL21 (DE3) competent cells were transformed with pTARA containing the RNA-polymerase gene of T7 phage (T7RP), under the control of the promoter PBAD. E. coli BL21 (DE3), with pTARA competent cells, were transformed with the pRKT42 vector encoding four repeats of the tau protein in two inserts. For overnight culture preparation, 10 mL of the M9 medium containing 0.5% of glucose, 50 μg·mL^−1 of ampicillin, and 12.5 μg·mL^−1 of chloramphenicol was inoculated with a colony of BL21 (DE3) bearing the plasmids to be expressed at 37 °C. […]
Th-S (T1892) and other chemical reagents were purchased from Sigma (St. Louis, MO, USA). […] Th-S fluorescence and absorbance were tracked using a DTX 800 plate reader Multimode Detector equipped with a Multimode Analysis Software (Beckman-Coulter, Indianapolis, IN, USA). […] A filter of 535/25 nm was also used for the absorbance determination. To normalize the Th-S fluorescence as a function of the bacterial concentration, OD600 was obtained using a Shimadzu UV-2401 PC UV–Vis spectrophotometer (Shimadzu, Japan). Note that the fluorescence normalisation was carried out considering 100% of the Th-S fluorescence of the bacterial cells expressing the peptide or protein in the absence of the drug and 0% of the Th-S fluorescence of the bacterial cells not expressing the peptide or protein. […]

equine BChE (eqBChE) [1] = target: T2, equine BChE (eqBChE) (Equus caballus, UniProt P81908); test: Inhibition constant and mechanism vs. eqBChE by Dixon's method; type: biochemical; conditions: inhibitor 200-1800 nM, acetylthiocholine 100-300 µM; for Ki: eqBChE, read-out: Ki ± SD
T2 construct: purchased Sigma-Aldrich (Milan, Italy)
Method: The recorded data were analysed with the enzyme kinetic module of SigmaPlot in order to find the best fitting model of inhibition, using the linear regression analysis. The reference kinetic models used in the regression analysis were: competitive, non-competitive, uncompetitive and mixed. Each determination was repeated five times and incorrect values were discarded to reduce the standard deviation to within the limit of 5%. In this way, the regression lines obtained have a linear regression coefficient (R^2) higher than 0.98. […] The Dixon’s plots of tested compounds are reported in the Supplementary Materials (Figures S1 and S2).
The constant and the mechanism of inhibition vs. eqBChE were determined for the compounds 12 and 14. For each compound a 500 μM stock solution was prepared in H2O/DMSO and diluted in water to prepare solutions of opportune concentrations (10, 30 and 60 μM) in order to introduce the cuvette volumes ranging from 60 to 100 μL to obtain the desired final concentrations (200–1800 nM). The maximum amount of DMSO used for the preparation of the stock solution was calculated in order to obtain a DMSO content in cuvette of <0.033%.
An amount of 3.0 mL of 0.1 M phosphate buffer (pH = 7.4), containing DTNB (0.25 mM) and eqBChE (0.083 UmL^−1), were mixed with the opportune volume of inhibitor, to obtain, in the cuvette, a final inhibitor concentration between 200 and 1800 nM. With this solution the blank was made. […]. The absorbance variations were measured at 412 nm at 25 °C between 0.5 and 1.5 min.
In order to determine the inhibition constants (Ki) and inhibition mechanism the rates of hydrolysis at three different concentrations of substrate in the presence of five different concentration of inhibitor were measured. The recorded data were analyzed by the enzyme kinetic module of SigmaPlot (version 8.02), plotting the reciprocal of rate of hydrolysis (1/v, min/μM) vs. the concentration of inhibitor (nM), according to Dixon’s method in order to find the best fitting model of inhibition, as indicated by calculated linear regression coefficient R^2.

equine BChE (eqBChE) [2] = target: T2, equine BChE (eqBChE); test: Determination of IC50 vs. eqBChE; type: biochemical; conditions: IC50 ± SE, 100 µM acetylthiocholine, compound 18 after incubation for 1 h
Method: The recorded data were analyzed with the enzyme kinetic module of SigmaPlot (Systat Software, Palo alto, CA, USA). Each measurement was replicated three times and the IC50 value obtained was confirmed by repeating the experiment twice. […] The IC50 plot of the tested compound is reported in the Supplementary Materials (Figure S3).
The recorded data were analyzed by the enzyme kinetic module of SigmaPlot, plotting the percentages of inhibition as a function of the different concentrations of inhibitor, expressed in logarithmic scale, in order to obtain the sigmoid graph, from which it was possible to determinate the IC50 value of the tested compound. The IC50 value was confirmed by repeating the experiment twice.

T2 sequence (P81908 whole entry): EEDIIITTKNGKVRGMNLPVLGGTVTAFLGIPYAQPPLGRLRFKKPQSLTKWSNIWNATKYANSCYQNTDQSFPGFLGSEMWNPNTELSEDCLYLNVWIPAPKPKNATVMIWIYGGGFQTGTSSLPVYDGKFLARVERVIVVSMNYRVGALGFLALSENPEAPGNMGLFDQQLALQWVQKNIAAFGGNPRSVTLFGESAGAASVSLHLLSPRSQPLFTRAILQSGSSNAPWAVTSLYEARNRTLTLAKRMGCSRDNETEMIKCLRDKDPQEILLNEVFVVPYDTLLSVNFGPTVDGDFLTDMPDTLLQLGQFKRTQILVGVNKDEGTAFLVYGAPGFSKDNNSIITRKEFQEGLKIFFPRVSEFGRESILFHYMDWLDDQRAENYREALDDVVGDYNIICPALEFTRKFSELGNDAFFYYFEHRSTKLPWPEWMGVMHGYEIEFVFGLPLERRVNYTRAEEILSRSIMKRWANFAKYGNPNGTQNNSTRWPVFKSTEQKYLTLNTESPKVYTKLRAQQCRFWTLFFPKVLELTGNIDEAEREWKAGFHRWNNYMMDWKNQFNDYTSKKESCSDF
T1 sequence (P10636 1-441 isoform P10636-8): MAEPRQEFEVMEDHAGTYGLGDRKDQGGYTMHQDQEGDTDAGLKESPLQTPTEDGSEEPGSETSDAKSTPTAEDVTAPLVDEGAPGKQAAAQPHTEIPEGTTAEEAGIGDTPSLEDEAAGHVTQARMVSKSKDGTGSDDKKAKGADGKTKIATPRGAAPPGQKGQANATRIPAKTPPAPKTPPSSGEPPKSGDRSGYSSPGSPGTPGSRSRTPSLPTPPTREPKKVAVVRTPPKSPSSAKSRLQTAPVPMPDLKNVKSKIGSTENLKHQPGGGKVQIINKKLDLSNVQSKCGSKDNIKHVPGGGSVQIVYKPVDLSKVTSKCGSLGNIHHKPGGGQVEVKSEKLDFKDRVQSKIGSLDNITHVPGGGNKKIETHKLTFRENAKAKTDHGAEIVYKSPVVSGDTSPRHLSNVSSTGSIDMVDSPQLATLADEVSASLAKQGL

Row | Structure (SMILES) | inhibition at 100 µM (tau protein) | Ki (equine BChE (eqBChE) [1]) | Mechanism of inhibition on eqBChE (equine BChE (eqBChE) [1]) | IC50 (equine BChE (eqBChE) [2])
1 | O=C(Cc1ccc(Oc2ccccc2)cc1)NCCCCCCNc1ccccn1 [Compound 14, 2-(4-phenoxyphenyl)-N-(6-(pyridin-2-ylamino)hexyl)acetamide] | 10.9% | 0.621 ± 0.043 µM | Competitive | –
2 | O=C(NCCCCCCNc1ccccn1)Oc1ccccc1 [Compound 18, Phenyl (6-(pyridin-2-ylamino)hexyl)carbamate] | 15.7% | – | – | 0.454 µM
3 | O=C(NCCCCCCNc1ccccn1)c1ccccc1 [Compound 12, N-(6-(pyridin-2-ylamino)hexyl)benzamide] | 11% | 2.99 ± 0.19 µM | Competitive | –
